Columns and labels:
Type in all cases: in vivo
[1] = tested on: Zea mays (ZEAMX); settings: crop plant compatibility; for Pre-emergence action against ZEAMX: 20 g/ha, effect vs untreated controls; for Pre-emergence action against ZEAMX in %: 80 g/ha, in comparison to untreated controls
Method in brief: (§1)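 Scoring: visual, % of untreated control, about 3 weeks after a pre-emergence application to the soil surface. Application used WP or EC formulations diluted in water with 0.5% additive at 600 l/ha; dosage levels are marked by suffixes a, b and c.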

[2] = tested on: Oryza sativa (ORYSA); settings: crop plant compatibility; for Pre-emergence action against ORYSA: 20 g/ha, effect vs untreated controls; for Pre-emergence action against ORYSA in %: 80 g/ha, in comparison to untreated controls
Method in brief: as §1

[3] = tested on: Brassica napus (BRSNW); settings: 20 g/ha, crop plant compatibility, in comparison to untreated controls
Method in brief: as §1

[4] = tested on: Triticum aestivum (TRZAS); settings: crop plant compatibility; for Pre-emergence action against TRZAS: 20 g/ha, effect vs untreated controls
Method in brief: as §1

[5] = tested on: Glycine max (GLXMA); settings: 20 g/ha; crop plant compatibility, effect vs untreated controls
Method in brief: as §1

Compound | Pre-emergence action against ZEAMX [1] [%] | Pre-emergence action against ORYSA [2] [%] | Pre-emergence action against ZEAMX in % [1] [%] | Pre-emergence action against TRZAS [4] [%] | Pre-emergence action against ORYSA in % [2] [%] | other results
CCOC(=O)COc1nn(-c2ccccn2)c(-c2ccc(F)nc2)c1Br [Example I-02] | 0 | 0 |  |  |  | 
C[C@@H](Oc1nn(-c2ncccc2F)c(-c2ccc(F)nc2)c1Br)C(=O)O [Example I-10] |  |  | 20 |  |  | 
COC(=O)COc1nn(-c2ncccc2F)c(-c2cncc(F)c2)c1Br [Example I-16] | 10 | 20 |  | 10 |  | Pre-emergence action against BRSNW in % [3]: 10%; Pre-emergence action against TRZAS in % ([4]; pre-emergence, 80 g/ha, in comparison to untreated controls): 20%
O=C(O)COc1nn(-c2ncccc2F)c(-c2ccc(F)nc2)c1Br [Example I-17] |  | 0 |  | 10 |  | Pre-emergence action against GLXMA [5]: 10%
COCCOC(=O)COc1nn(-c2ccccn2)c(-c2ccc(F)nc2)c1Br [Example I-96] |  |  | 0 |  | 20 | 
CCOC(=O)COc1nn(-c2nc(F)ccc2F)c(-c2cncc(F)c2)c1Br [Example I-193] |  |  |  |  | 20 | 
